The IC50 is the concentration at which inhibition is half-maximal.

14 molecules from patent US20100234377A1 (priority 2007, published 2010) can be followed below.

This assay addresses T1, human Prostaglandin D Synthase (GST2) (Homo sapiens, UniProt O60760).
T1 construct: the open reading frame of human Prostaglandin D Synthase was amplified from cDNA; made in house; host or cells: E. coli TOP10F'
Nature of the assay: Homogeneous biochemical assay of human Prostaglandin D Synthase (GST2) based on its glutathion-S-transferase activity (GSH conjugation to monochlorobimane, fluorescence). The settings on record: given beside the compound name in Examples 1 to 167; read-out: Potency Range (GST2 IC50). In short, it runs like this: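 N-His-tagged human PGD synthase from E. coli, assayed via its GST activity: GSH conjugation to monochlorobimane in 50 mM MES/KOH pH 6.1, 0.7 mM GSH, 2 mM MgCl2. Compounds at final picomolar to triple-digit micromolar concentrations.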

T1 sequence (O60760 whole entry): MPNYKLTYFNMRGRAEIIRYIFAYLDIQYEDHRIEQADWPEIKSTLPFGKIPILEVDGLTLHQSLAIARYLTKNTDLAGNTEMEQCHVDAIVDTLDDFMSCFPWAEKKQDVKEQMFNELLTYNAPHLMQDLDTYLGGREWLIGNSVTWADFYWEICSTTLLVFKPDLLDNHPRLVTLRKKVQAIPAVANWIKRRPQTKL

On to `O=C(Nc1cccc(NC(=O)N2CCN(C(=O)c3cccc(F)c3)CC2)c1)c1ccc(F)nc1` [Compound 111, 4-(3-Fluoro-benzoyl)-piperazine-1-carboxylic acid {3-[(6-fluoro-pyridine-3-carbonyl)-amino]-phenyl}-amide], for which the IC50 lay in the range of 0.101 to 1 µM.
In the case of `Nc1ccc(NC(=O)N2CCN(C(=O)c3cccc(F)c3)CC2)cc1` [Compound 112, 4-(3-Fluoro-benzoyl)-piperazine-1-carboxylic acid (4-amino-phenyl)-amide], the IC50 was in the range of 0.101 to 1 µM.
As for `Nc1ccc(NC(=O)N2CCN(C(=O)c3cc(F)ccc3F)CC2)cc1` [Compound 113, 4-(2,5-Difluoro-benzoyl)-piperazine-1-carboxylic acid (4-amino-phenyl)-amide], the IC50 lay in the range of 0.101 to 1 µM.
Then `O=C(Nc1ccc(NC(=O)N2CCN(C(=O)c3cccc(F)c3)CC2)cc1)c1ccccn1` [Compound 114, 4-(3-Fluoro-benzoyl)-piperazine-1-carboxylic acid {4-[(pyridine-2-carbonyl)-amino]-phenyl}-amide], with 0.011 to 0.1 µM; and `O=C(Nc1ccc(NC(=O)N2CCN(C(=O)c3cccc(F)c3)CC2)cc1)c1cccc[n+]1[O-]` [Compound 115, 4-(3-Fluoro-benzoyl)-piperazine-1-carboxylic acid {4-[(1-oxy-pyridine-2-carbonyl)-amino]-phenyl}-amide], with 0.011 to 0.1 µM; and `O=C(Nc1ccc(NC(=O)N2CCN(C(=O)c3cccc(F)c3)CC2)cc1)c1ccc[n+]([O-])c1` [Compound 116, 4-(3-Fluoro-benzoyl)-piperazine-1-carboxylic acid {4-[(1-oxy-pyridine-3-carbonyl)-amino]-phenyl}-amide], with 0.011 to 0.1 µM.
Take `O=C(Nc1ccc(NC(=O)N2CCN(C(=O)c3cccc(F)c3)CC2)cc1)c1ccc(F)nc1` [Compound 117, 4-(3-Fluoro-benzoyl)-piperazine-1-carboxylic acid {4-[(6-fluoro-pyridine-3-carbonyl)-amino]-phenyl}-amide]: the IC50 lay within 0.101 to 1 µM.
For `O=C(Nc1ccc(NC(=O)N2CCN(C(=O)c3cc(F)ccc3F)CC2)cc1)c1cccc[n+]1[O-]` [Compound 118, 4-(2,5-Difluoro-benzoyl)-piperazine-1-carboxylic acid {4-[(1-oxy-pyridine-2-carbonyl)-amino]-phenyl}-amide] the value was 0.011 to 0.1 µM.
For `O=C(Nc1ccc(NC(=O)N2CCN(C(=O)c3cc(F)ccc3F)CC2)cc1)c1ccc[n+]([O-])c1` [Compound 119, 4-(2,5-Difluoro-benzoyl)-piperazine-1-carboxylic acid {4-[(1-oxy-pyridine-3-carbonyl)-amino]-phenyl}-amide] the value was 0.011 to 0.1 µM; for `O=C(Nc1ccc(NC(=O)N2CCN(C(=O)c3cccc(F)c3)CC2)cc1)c1ccc(F)cc1` [Compound 120, 4-(3-Fluoro-benzoyl)-piperazine-1-carboxylic acid [4-(4-fluoro-benzoylamino)-phenyl]-amide], 0.011 to 0.1 µM; for `CC(C)C(=O)Nc1ccc(NC(=O)N2CCN(C(=O)c3cccc(F)c3)CC2)cc1` [Compound 121, 4-(3-Fluoro-benzoyl)-piperazine-1-carboxylic acid (4-isobutyrylamino-phenyl)-amide], 0.101 to 1 µM.
For `O=C(Nc1ccc(NC(=O)N2CCN(C(=O)c3cccc(F)c3)CC2)cc1)c1cccnc1` [Compound 122, 4-(3-Fluoro-benzoyl)-piperazine-1-carboxylic acid {4-[(pyridine-3-carbonyl)-amino]-phenyl}-amide] the value was 0.101 to 1 µM.
Take `O=C(Nc1ccc(NC(=O)N2CCN(C(=O)c3cccc(F)c3)CC2)cc1)C1CCOCC1` [Compound 124, 4-(3-Fluoro-benzoyl)-piperazine-1-carboxylic acid {4-[(tetrahydro-pyran-4-carbonyl)-amino]-phenyl}-amide]: the concentration for half-maximal inhibition (IC50) is 0.101 to 1 µM.
For `O=C(Nc1ccc(NS(=O)(=O)c2ccccc2)cc1)N1CCN(C(=O)c2cccc(F)c2)CC1` [Compound 125, 4-(3-Fluoro-benzoyl)-piperazine-1-carboxylic acid (4-benzenesulfonylamino-phenyl)-amide], the IC50 is 0.011 to 0.1 µM.
